Tests used:
Type in all cases: in vivo
Kochia (Kochia scoparia) [1] = assay: Test A preemergence; settings: Bassia scoparia, pre-emergence, 240 h, Preemergence
Procedure, shortened: (§1)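 Each rating is a visual injury score from 0 to 100 given about 10 d after treatment, judged against untreated controls kept alongside in the greenhouse. In loam soil–sand blend, seeds got a preemergence directed soil spray, while postemergence plants were 2 to 10 cm tall at spraying.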

[2] = test system: barnyardgrass (Echinochloa crus-galli); assay: Test A preemergence; settings: Echinochloa crus-galli, pre-emergence, 240 h, Preemergence
Procedure, shortened: as §1

[3] = test system: giant foxtail (Setaria faberii); assay: Test A preemergence; settings: Setaria faberi, pre-emergence, 240 h, Preemergence
Procedure, shortened: as §1

[4] = test system: pigweed (Amaranthus retroflexus); assay: Test A preemergence; settings: Amaranthus retroflexus, pre-emergence, 240 h, Preemergence
[5] = test system: ragweed (common ragweed, Ambrosia elatior); assay: Test A preemergence; settings: Ambrosia artemisiifolia, pre-emergence, 240 h, Preemergence
Procedure, shortened: as §1

[6] = test system: ryegrass, Italian (Italian ryegrass, Lolium multiflorum); assay: Test A preemergence; settings: Lolium multiflorum, pre-emergence, 240 h, Preemergence
Procedure, shortened: as §1

[7] = test system: Galium (catchweed bedstraw, Galium aparine); assay: Test A postemergence; settings: Galium, post-emergence, 240 h, Postemergence, read-out: Plant response rating, Galium
Procedure, shortened: as §1

Kochia (Kochia scoparia) [8] = assay: Test A postemergence; settings: Bassia scoparia, post-emergence, 240 h, Postemergence, read-out: Plant response rating, Kochia
Procedure, shortened: as §1

[9] = test system: barnyardgrass (Echinochloa crus-galli); assay: Test A postemergence; settings: Echinochloa crus-galli, post-emergence, 240 h, Postemergence, read-out: Plant response rating, Barnyardgrass
Procedure, shortened: as §1

[10] = test system: blackgrass (Alopecurus myosuroides); assay: Test A postemergence; settings: Alopecurus myosuroides, post-emergence, 240 h, Postemergence, read-out: Plant response rating, Blackgrass
Procedure, shortened: as §1

corn (Zea mays) = assay: Test A postemergence; settings: Zea mays, post-emergence, 240 h, Postemergence
Procedure, shortened: as §1

[11] = test system: giant foxtail (Setaria faberii); assay: Test A postemergence; settings: Setaria faberi, post-emergence, 240 h, Postemergence, read-out: Plant response rating, Foxtail, Giant
Procedure, shortened: as §1

[12] = test system: pigweed (Amaranthus retroflexus); assay: Test A postemergence; settings: Amaranthus retroflexus, post-emergence, 240 h, Postemergence, read-out: Plant response rating, Pigweed
Procedure, shortened: as §1

[13] = test system: ragweed (common ragweed, Ambrosia elatior); assay: Test A postemergence; settings: Ambrosia artemisiifolia, post-emergence, 240 h, Postemergence, read-out: Plant response rating, Ragweed
Procedure, shortened: as §1

[14] = test system: ryegrass, Italian (Italian ryegrass, Lolium multiflorum); assay: Test A postemergence; settings: Lolium multiflorum, post-emergence, 240 h, Postemergence, read-out: Plant response rating, Ryegrass, Italian
Procedure, shortened: as §1

[15] = test system: wheat (Triticum aestivum); assay: Test A postemergence; settings: Triticum aestivum, post-emergence, 240 h, Postemergence, read-out: Plant response rating, Wheat
Procedure, shortened: as §1

[16] = test system: barnyardgrass (Echinochloa crus-galli); assay: Test B flooded paddy test; settings: Echinochloa crus-galli, Flood, 250 g ai/ha; scale of 0 to 100 where 0 is no effect and 100 is complete control; read-out: Barnyardgrass plant response rating
Procedure, shortened: (§2)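 Compound goes directly into floodwater once pots are flooded 3 cm above soil, targeting plants at two leaves; the water depth is then held for the test duration. Plants sit 13–15 d in a greenhouse and are rated visually, 100 denoting complete control.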

[17] = test system: ducksalad (Heteranthera limosa); assay: Test B flooded paddy test; settings: Heteranthera limosa, Flood, 250 g ai/ha; scale of 0 to 100 where 0 is no effect and 100 is complete control; read-out: Ducksalad plant response rating
Procedure, shortened: as §2

rice (Oryra sativa) = assay: Test B flooded paddy test; settings: Oryza sativa, Flood, 250 g ai/ha; scale of 0 to 100 where 0 is no effect and 100 is complete control; read-out: Rice plant response rating
Procedure, shortened: as §2

[18] = test system: sedge, umbrella (small-flower umbrella sedge, Cyperus difformis); assay: Test B flooded paddy test; settings: Cyperus difformis, Flood, 250 g ai/ha; scale of 0 to 100 where 0 is no effect and 100 is complete control; read-out: Sedge, Umbrella plant response rating
Procedure, shortened: as §2

[19] = 125 g ai/ha, visual injury after approximately 10 d, 0 to 100 scale where 0 is no effect and 100 is complete control
[20] = 31 g ai/ha, visual injury after approx. 10 d, 0 to 100 scale, 0 no effect, 100 complete control

SMILES: CC(C)Oc1cc([C@H]2CN(C)C(=O)[C@@H]2C(=O)Nc2cccc(F)c2F)cc(C(F)(F)F)c1 [Compound 972]
- pest or weed control at 125 g/ha (Kochia (Kochia scoparia) [1]; 125 g ai/ha, visual injury rating after approximately 10 d, read-out: Kochia plant response rating (0 to 100 scale, 0 is no effect, 100 is complete control)): 0%
- pest or weed control at 31 g/ha (Kochia (Kochia scoparia) [1]; 31 g ai/ha, 0 to 100 scale (0 no effect, 100 complete control), read-out: Plant response rating, Kochia): 0%
- pest or weed control at 125 g/ha ([2]; 125 g ai/ha, visual injury rating after approximately 10 d, read-out: Barnyardgrass plant response rating (0 to 100 scale, 0 is no effect, 100 is complete control)): 80%
- pest or weed control at 31 g/ha ([2]; 31 g ai/ha, 0 to 100 scale (0 no effect, 100 complete control), read-out: Plant response rating, Barnyardgrass): 70%
- pest or weed control at 125 g/ha ([3]; 125 g ai/ha, visual injury rating after approximately 10 d, read-out: Foxtail, Giant plant response rating (0 to 100 scale, 0 is no effect, 100 is complete control)): 80%
- pest or weed control at 31 g/ha ([3]; 31 g ai/ha, 0 to 100 scale (0 no effect, 100 complete control), read-out: Plant response rating, Foxtail, Giant): 80%
- pest or weed control at 125 g/ha ([4]; 125 g ai/ha, visual injury rating after approximately 10 d, read-out: Pigweed plant response rating (0 to 100 scale, 0 is no effect, 100 is complete control)): 0%
- pest or weed control at 31 g/ha ([4]; 31 g ai/ha, 0 to 100 scale (0 no effect, 100 complete control), read-out: Plant response rating, Pigweed): 0%
- pest or weed control at 125 g/ha ([5]; 125 g ai/ha, visual injury rating after approximately 10 d, read-out: Ragweed plant response rating (0 to 100 scale, 0 is no effect, 100 is complete control)): 20%
- pest or weed control at 31 g/ha ([5]; 31 g ai/ha, 0 to 100 scale (0 no effect, 100 complete control), read-out: Plant response rating, Ragweed): 0%
- pest or weed control at 125 g/ha ([6]; 125 g ai/ha, visual injury rating after approximately 10 d, read-out: Ryegrass, Italian plant response rating (0 to 100 scale, 0 is no effect, 100 is complete control)): 90%
- pest or weed control at 31 g/ha ([6]; 31 g ai/ha, 0 to 100 scale (0 no effect, 100 complete control), read-out: Plant response rating, Ryegrass, Italian): 50%
- pest or weed control at 125 g/ha [7, 19]: 30%
- pest or weed control at 31 g/ha [7, 20]: 0%
- pest or weed control at 125 g/ha (Kochia (Kochia scoparia) [8]; [19]): 0%
- pest or weed control at 31 g/ha (Kochia (Kochia scoparia) [8]; [20]): 0%
- pest or weed control at 125 g/ha [9, 19]: 50%
- pest or weed control at 31 g/ha [9, 20]: 50%
- pest or weed control at 125 g/ha [10, 19]: 0%
- pest or weed control at 31 g/ha [10, 20]: 0%
- Corn plant response rating (crop injury, 0 = no effect, 100 = complete kill) at 125 g/ha (corn (Zea mays); [19]): 60%
- Corn plant response rating (crop injury, 0 = no effect, 100 = complete kill) at 31 g/ha (corn (Zea mays); [20]): 20%
- pest or weed control at 125 g/ha [11, 19]: 60%
- pest or weed control at 31 g/ha [11, 20]: 30%
- pest or weed control at 125 g/ha [12, 19]: 30%
- pest or weed control at 31 g/ha [12, 20]: 20%
- pest or weed control at 125 g/ha [13, 19]: 30%
- pest or weed control at 31 g/ha [13, 20]: 0%
- pest or weed control at 125 g/ha [14, 19]: 20%
- pest or weed control at 31 g/ha [14, 20]: 0%
- plant injury at 125 g/ha [15, 19]: 40%
- plant injury at 31 g/ha [15, 20]: 20%
- pest or weed control at 250 g/ha [16]: 80%
- pest or weed control at 250 g/ha [17]: 85%
- pest or weed control at 250 g/ha (rice (Oryra sativa)): 50%
- pest or weed control at 250 g/ha [18]: 0%

Source: patent US12077503B2, “Substituted cyclic amides and their use as herbicides” (FMC CORPORATION, priority 2015, dated 2024)
